Earlier results on one molecule are cited in article PMC12347832, “Multi-Component Synthesis of New Fluorinated-Pyrrolo[3,4-b]pyridin-5-ones Containing the 4-Amino-7-chloroquinoline Moiety and In Vitro–In Silico Studies Against Human SARS-CoV-2” (International Journal of Molecular Sciences, 2025).

This series concerns SARS-CoV-2. The following applies: cited from earlier work.

As a reminder, the IC50 is the concentration that gives 50% inhibition. `CCN(CC)CCCC(C)Nc1ccnc2cc(Cl)ccc12` (stereo not shown) [Chloroquine]: the IC50 was 1130 nM.
